Results on ten compounds are retold here after patent publication US20090239846A1, “Novel Compounds” (Glaxo Group Limited, priority 2005, published 2009).

As usually defined, the IC50 is the concentration that inhibits the measured activity by half.

SMILES strings stand for the structures.

T1 sequence (Q16539 whole entry): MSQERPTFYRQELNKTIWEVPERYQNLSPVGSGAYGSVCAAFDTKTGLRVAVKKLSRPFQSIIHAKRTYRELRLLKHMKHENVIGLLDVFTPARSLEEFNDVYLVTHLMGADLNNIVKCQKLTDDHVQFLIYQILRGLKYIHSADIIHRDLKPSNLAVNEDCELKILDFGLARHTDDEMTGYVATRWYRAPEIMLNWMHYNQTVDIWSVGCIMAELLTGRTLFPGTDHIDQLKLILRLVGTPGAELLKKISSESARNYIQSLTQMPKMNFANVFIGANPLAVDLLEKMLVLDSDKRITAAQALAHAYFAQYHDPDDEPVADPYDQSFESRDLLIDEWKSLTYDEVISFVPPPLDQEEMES

The first assay relates to IL-8 production by human neutrophils. The assay is described as follows: TNF-stimulated IL-8 production from human neutrophils. It is filed as cell-based. Particulars: Neutrophil, bound, not more than 50% inhibition at 100 nM, read-out: IC50; call rule not given here.
On to `CCc1ccc(C(N)=O)cc1-c1nc(NCCN(C)C)nc2c1CNC(=O)N2c1c(F)cccc1F` [Example 146, 3-(8-(2,6-difluorophenyl)-2-{[2-(dimethylamino)ethyl]amino}-7-oxo-5,6,7,8-tetrahydropyrimido[4,5-d]pyrimidin-4-yl)-4-ethylbenzamide], for which the IC50 is more than 100 nM.

For `Cc1ccc(C(=O)NC(C)C)cc1-c1nc(NCCCNC(C)(C)C)nc2c1CNC(=O)N2c1c(F)cccc1F` [Example 50, 3-[8-(2,6-difluorophenyl)-2-({3-[(1,1-dimethylethyl)amino]propyl}amino)-7-oxo-5,6,7,8-tetrahydropyrimido[4,5-d]pyrimidin-4-yl]-4-methyl-N-(1-methylethyl)benzamide], the IC50 was more than 100 nM.

Consider `Cc1c(F)cc(C(=O)N(C)C)cc1-c1nc(NCCN(C)C)nc2c1CNC(=O)N2c1c(F)cccc1F` [Example 113, 3-(8-(2,6-difluorophenyl)-2-{[2-(dimethylamino)ethyl]amino}-7-oxo-5,6,7,8-tetrahydropyrimido[4,5-d]pyrimidin-4-yl)-5-fluoro-N,N,4-trimethylbenzamide], for which the IC50 is more than 100 nM.

For the compound `CCCNC(=O)c1ccc(C)c(-c2nc(NCCNC(C)C)nc3c2CNC(=O)N3c2c(F)cccc2F)c1` [Example 62, 3-[8-(2,6-difluorophenyl)-2-({2-[(1-methylethyl)amino]ethyl}amino)-7-oxo-5,6,7,8-tetrahydropyrimido[4,5-d]pyrimidin-4-yl]-4-methyl-N-propylbenzamide], the concentration for half-maximal inhibition (IC50) was more than 100 nM.

For `CCCNC(=O)c1ccc(C)c(-c2nc(NCCCNC(C)(C)C)nc3c2CNC(=O)N3c2c(F)cccc2F)c1` [Example 65, 3-[8-(2,6-difluorophenyl)-2-({3-[(1,1-dimethylethyl)amino]propyl}amino)-7-oxo-5,6,7,8-tetrahydropyrimido[4,5-d]pyrimidin-4-yl]-4-methyl-N-propylbenzamide], the IC50 is more than 100 nM.

Turning to `CN(C)CCNc1nc(-c2cccc(C(=O)N(C)C)c2)c2c(n1)N(c1c(F)cccc1F)C(=O)NC2` [Example 90, 3-(8-(2,6-difluorophenyl)-2-{[2-(dimethylamino)ethyl]amino}-7-oxo-5,6,7,8-tetrahydropyrimido[4,5-d]pyrimidin-4-yl)-N,N-dimethylbenzamide], the IC50 was more than 100 nM.

For the compound `Cc1ccc(C(=O)NC(C)C)cc1-c1nc(N(C)CCCN(C)CCCN(C)C)nc2c1CNC(=O)N2c1c(F)cccc1F` [Example 116, 3-{8-(2,6-difluorophenyl)-2-[{3-[[3-(dimethylamino)propyl]-(methyl)amino]propyl}(methyl)amino]-7-oxo-5,6,7,8-tetrahydropyrimido[4,5-d]pyrimidin-4-yl}-4-methyl-N-(1-methylethyl)benzamide], the IC50 is more than 100 nM.

Staying with this assay, now noted: Neutrophil, ends given as 'less than' / 'greater than', read-out: IC50, broad range of data upon multiple runs.
Turning to `Cc1c(F)cc(C(=O)Nc2ccc(F)cc2)cc1-c1nc(NCCN(C)C)nc2c1CNC(=O)N2c1c(F)cccc1F` [Example 115, 3-(8-(2,6-difluorophenyl)-2-{[2-(dimethylamino)ethyl]amino}-7-oxo-5,6,7,8-tetrahydropyrimido[4,5-d]pyrimidin-4-yl)-5-fluoro-N-(4-fluorophenyl)-4-methylbenzamide], the half-inhibitory concentration (IC50) fell in the range of 1 to 100 nM.

Another assay addresses T1, Recombinant human p38α (Homo sapiens, UniProt Q16539).
T1 construct: GST; made in house
The assay can be described thus: Fluorescence anisotropy kinase binding assay (standard or low volume). Particulars: 12 nM p38α, 5 nM fluorescent ligand. From the text:
The concentration of kinase enzyme should preferably be >2×Kf. The concentration of fluorescent ligand required will depend on the instrumentation used, and the fluorescent and physicochemical properties. The concentration used must be lower than the concentration of kinase enzyme, and preferably less than half the kinase enzyme concentration.
The fluorescent ligand is the following compound:
[drawing 329] • which is derived from 5-[2-(4-aminomethylphenyl)-5-pyridin-4-yl-1H-imidazol-4-yl]-2-chlorophenol and rhodamine green. Recombinant human p38α was expressed as a GST-tagged protein. To activate this protein, 3.5 μM unactivated p38α was incubated in 50 mM Tris-HCl pH 7.5, 0.1 mM EGTA, 0.1% 2-mercaptoethanol, 0.1 mM sodium vanadate, 10 mM MgAc, 0.1 mM ATP with 200 nM MBP-MKK6 DD at 30 degrees for 30 mins. Following activation p38α was re-purified and the activity assessed using a standard filter-binding assay. Protocol: All components are dissolved in buffer of composition 62.5 mM HEPES, pH 7.5, 1.25 mM CHAPS, 1 mM DTT, 12.5 mM MgCl2 with final concentrations of 12 nM p38α and 5 nM fluorescent ligand. 30 μl of this reaction mixture is added to wells containing 1 μl of various concentrations of test compound (0.28 nM-16.6 μM final) or DMSO vehicle (3% final) in NUNC 384 well black microtitre plate and equilibrated for 30-60 mins at room temperature. Fluorescence anisotropy is read in Molecular Devices Acquest (excitation 485 nm/emission 535 nm). Definitions: Ki=dissociation constant for inhibitor binding • Kf=dissociation constant for fluorescent ligand binding
The concentration of kinase enzyme should preferably be 2×Kf. The concentration of fluorescent ligand required will depend on the instrumentation used, and the fluorescent and physicochemical properties. The concentration used must be lower than the concentration of kinase enzyme, and preferably less than half the kinase enzyme concentration. The fluorescent ligand is the following compound:
which is derived from 5-[2-(4-aminomethylphenyl)-5-pyridin-4-yl-1H-imidazol-4-yl]-2-chlorophenol and rhodamine green. Recombinant human p38α was expressed as a GST-tagged protein. To activate this protein, 3.5 μM unactivated p38α was incubated in 50 mM Tris-HCl pH 7.5, 0.1 mM EGTA, 0.1% 2-mercaptoethanol, 0.1 mM sodium vanadate, 10 mM MgAc, 0.1 mM ATP with 200 nM MBP-MKK6 DD at 30 degrees for 30 mins. Following activation p38α was re-purified and the activity assessed using a standard filter-binding assay. Protocol: All components are dissolved in buffer of composition 62.5 mM HEPES, pH 7.5, 1.25 mM CHAPS, 1 mM DTT, 12.5 mM MgCl2 with final concentrations of 12 nM p38α and 5 nM fluorescent ligand. […] of this reaction mixture is added to wells containing 0.1 μl of various concentrations of test compound (0.02 nM-25 μM final) or DMSO vehicle (1.7% final) in Greiner low volume 384 well black microtitre plate and equilibrated for 30-60 mins at room temperature. Fluorescence anisotropy is read in Molecular Devices Acquest (excitation 485 nm/emission 535 nm). Definitions: Ki dissociation constant for inhibitor binding • Kf=dissociation constant for fluorescent ligand binding It is noted that there are two assay formats shown above for the Fluorescence anisotropy kinase binding assay. The only difference between these two assays is the volume used and the plate type. […] The results described herein may have been performed in either assay format and are not differentiated as to which.
(In general: Fluorescence polarisation rises when a labelled molecule tumbles more slowly, as on binding a larger partner.)
Consider `Cc1ccc(C(=O)NC(C)C)cc1-c1nc(N(C)CCCN(C)C)nc2c1CNC(=O)N2c1c(F)cccc1F` [34(d), 3-{8-(2,6-difluorophenyl)-2-[[3-(dimethylamino)propyl](methyl)amino]-7-oxo-5,6,7,8-tetrahydropyrimido[4,5-d]pyrimidin-4-yl}-4-methyl-N-(1-methylethyl)benzamide], for which the “active in the assay (pIC50, p38α binding)” value is “active”.

As to `CCCNC(=O)c1ccc(C)c(-c2nc(NCCCN(CC)CC)nc3c2CNC(=O)N3c2c(F)cccc2F)c1` [29(c), 3-[2-{[3-(diethylamino)propyl]amino}-8-(2,6-difluorophenyl)-7-oxo-5,6,7,8-tetrahydropyrimido[4,5-d]pyrimidin-4-yl]-4-methyl-N-propylbenzamide], the “active in the assay (pIC50, p38α binding)” value is “active”.

The next assay has as its system influx of neutrophils to the lung in LPS-challenged rats. The assay can be described thus: Rat LPS neutrophilia model. It is filed as in vivo. The conditions noted are these: LPS aerosol, lavage 4 hours later, in at least one of the range of conditions tested, significance p<0.05. The procedure, abridged: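 Rats pretreated 15 min–24 h with compound or vehicle, given intratracheally (200 ul, isoflurane anaesthesia) as suspension in various vehicles, then exposed to LPS aerosol (100 ug/ml) 15 min. BAL 4 h later; Diffquick-stained differential counts give % inhibition of neutrophils versus no-compound controls at a set concentration and pretreatment time.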
On to `Cc1ccc(C(=O)NC(C)C)cc1-c1nc(N(C)CCCN(C)C)nc2c1CNC(=O)N2c1c(F)cccc1F` [34(d), 3-{8-(2,6-difluorophenyl)-2-[[3-(dimethylamino)propyl](methyl)amino]-7-oxo-5,6,7,8-tetrahydropyrimido[4,5-d]pyrimidin-4-yl}-4-methyl-N-(1-methylethyl)benzamide], for which the inhibition of neutrophilia entry is listed as “statistically nonsignificant inhibition of neutrophilia”.

`CCCNC(=O)c1ccc(C)c(-c2nc(NCCCN(CC)CC)nc3c2CNC(=O)N3c2c(F)cccc2F)c1` [29(c), 3-[2-{[3-(diethylamino)propyl]amino}-8-(2,6-difluorophenyl)-7-oxo-5,6,7,8-tetrahydropyrimido[4,5-d]pyrimidin-4-yl]-4-methyl-N-propylbenzamide]: the inhibition of neutrophilia result is reported as “statistically significant inhibition of neutrophilia”.
